This note sets out measurements from patent US9504668B2 (priority 2013, dated 2016).

Common to all, as to assay: animal or person
Assay type in all cases: in vivo

The test system of experiment [1] is Male Sprague-Dawley rats. The conditions noted are these: for ED50: Rattus norvegicus, read-out: Prevention ED50; for ED50 / Prevention Peak Time: ip; for Prevention Peak Time / Prevention Protection %: rat, in vivo.
Experiment [2] concerns Male Sprague-Dawley rats. Particulars: Rattus norvegicus, iv, read-out: Intervention Protection %.
A further experiment relates to Mice. The conditions noted are these: Mus musculus, po; for ED50: read-out: MES test ED50.
The mark [3] stands for this setting: read-out: MES test Protection %.

As a reminder, the ED50 is the dose that gives a 50% effect, or the effect in half of the subjects. For the compound `COCO[C@@H](c1ccccc1Cl)[C@H](C)OC(N)=O` [Example 1, 1-(2-chlorophenyl)-(S)-1-methoxymethoxypropyl-(S)-2-carbamate], in the experiment on Male Sprague-Dawley rats [1], the ED50 came to 26.6 mg/kg and the “Prevention Peak Time” value is given as 0.5 h. Moreover, the responders at 46 mg/kg in the experiment with Male Sprague-Dawley rats [2] is 50%. Also, in the experiment on Mice, the ED50 turned out to be 21.6 mg/kg. With `CC[C@H](OC(N)=O)[C@@H](OCOC)c1ccccc1Cl` [Example 9, 1-(2-chlorophenyl)-(S)-1-methoxymethoxybutyl-(S)-2-carbamate], the responders at 46 mg/kg with Male Sprague-Dawley rats [2] is 33.3%. For the same compound, the responders at 90 mg/kg in the experiment with Mice (setting [3]) stood at 100%. Consider `COCO[C@@H](c1ccccc1Cl)[C@@H](OC(N)=O)C(C)C` [Example 10, 1-(2-chlorophenyl)-(S)-1-methoxymethoxy-3-methyl-butyl-(S)-2-carbamate], for which, in the experiment with Male Sprague-Dawley rats [2], the responders at 46 mg/kg stood at 66.7%. Further, the responders at 90 mg/kg in the experiment with Mice (setting [3]) was determined as 100%. The corresponding values for `CCCC[C@H](OC(N)=O)[C@@H](OCOC)c1ccccc1Cl` [Example 11, 1-(2-chlorophenyl)-(S)-1-methoxymethoxyhexyl-(S)-2-carbamate] are 66.7% and 100%. On to `COCO[C@@H](c1ccccc1I)[C@H](C)OC(N)=O` [Example 20, 1-(2-iodophenyl)-(S)-1-methoxymethoxypropyl-(S)-2-carbamate], for which, in the experiment with Male Sprague-Dawley rats [1], the ED50 worked out at 25.9 mg/kg and the “Prevention Peak Time” value was 1 h. Besides, in the experiment on Male Sprague-Dawley rats [2], the responders at 46 mg/kg turned out to be 16.7%. Besides, in the experiment on Mice, the ED50 turned out to be 29.5 mg/kg. Regarding `CC[C@H](OC(N)=O)[C@@H](OCOC)c1ccccc1I` [Example 28, 1-(2-iodophenyl)-(S)-1-methoxymethoxybutyl-(S)-2-carbamate], the “Prevention Protection %” value with Male Sprague-Dawley rats [1] is reported as “^a50 (100%)”. Besides, the responders at 46 mg/kg in the experiment with Male Sprague-Dawley rats [2] was 33.3%. For the same compound, the responders at 90 mg/kg in the experiment on Mice (setting [3]) was 33.3%.

Take `COCO[C@@H](c1ccccc1I)[C@@H](OC(N)=O)C(C)C` [Example 36, 1-(2-iodophenyl)-(S)-1-methoxymethoxy-3-methyl-butyl-(S)-2-carbamate]: in the experiment with Mice (setting [3]), the responders at 90 mg/kg stood at 100%. As to `CCCC[C@H](OC(N)=O)[C@@H](OCOC)c1ccccc1I` [Example 44, 1-(2-iodophenyl)-(S)-1-methoxymethoxyhexyl-(S)-2-carbamate], the responders at 90 mg/kg with Mice (setting [3]) was 100%. As to `COCO[C@@H](c1cccc(I)c1)[C@H](C)OC(N)=O` [Example 52, 1-(3-iodophenyl)-(S)-1-methoxymethoxypropyl-(S)-2-carbamate], in the experiment on Male Sprague-Dawley rats [1], the “Prevention Protection %” value is reported as “^a20 (16.7%)”. For the same compound, the responders at 46 mg/kg in the experiment on Male Sprague-Dawley rats [2] stood at 100%. Moreover, in the experiment on Mice, the ED50 came out at 24.7 mg/kg. Regarding `COCO[C@@H](c1cccc(Cl)c1Cl)[C@H](C)OC(N)=O` [Example 68, 1-(2,3-dichlorophenyl)-(S)-1-methoxymethoxypropyl-(S)-2-carbamate], the responders at 46 mg/kg in the experiment with Male Sprague-Dawley rats [2] came out at 40%. In the experiment with Mice (setting [3]), the responders at 90 mg/kg turned out to be 100%. On to `COCO[C@H](c1ccccc1Cl)[C@@H](C)OC(N)=O` [Example 69, 1-(2-chlorophenyl)-(R)-1-methoxymethoxypropyl-(R)-2-carbamate], for which the responders at 90 mg/kg in the experiment with Mice (setting [3]) was found to be 66.6%. `COCO[C@H](c1ccccc1Cl)[C@H](C)OC(N)=O` [Example 71, 1-(2-chlorophenyl)-(R)-1-methoxymethoxypropyl-(S)-2-carbamate]: the responders at 46 mg/kg in the experiment on Male Sprague-Dawley rats [2] worked out at 100%. The responders at 90 mg/kg in the experiment on Mice (setting [3]) amounted to 100%.

In the case of `COCO[C@@H](c1ccccc1Cl)[C@@H](C)OC(N)=O` [Example 72, 1-(2-chlorophenyl)-(S)-1-methoxymethoxypropyl-(R)-2-carbamate], in the experiment with Male Sprague-Dawley rats [2], the responders at 46 mg/kg is 50%. Besides, the responders at 90 mg/kg in the experiment on Mice (setting [3]) is 100%. For `COCO[C@H](c1c(Cl)cccc1Cl)[C@@H](C)OC(N)=O` [Example 107, 1-(2,6-dichlorophenyl)-(R)-1-methoxymethoxypropyl-(R)-2-carbamate], in the experiment with Mice (setting [3]), the responders at 30 mg/kg was 33.3%. On to `CO[C@@H](c1ccccc1Cl)[C@H](C)OC(N)=O` [Example 124, 1-(2-chlorophenyl)-(S)-1-methoxypropyl-(S)-2-carbamate], for which the ED50 in the experiment with Mice was determined as 15.6 mg/kg. In the case of `CCCC[C@H](OC(N)=O)[C@@H](OC)c1ccccc1I` [Example 167, 1-(2-iodophenyl)-(S)-1-methoxyhexyl-(S)-2-carbamate], the responders at 90 mg/kg in the experiment with Mice (setting [3]) turned out to be 33.3%.

For `CO[C@@H](c1cccc(I)c1)[C@@H](OC(N)=O)C(C)C` [Example 177, 1-(3-iodophenyl)-(S)-1-methoxy-3-methyl-butyl-(S)-2-carbamate], in the experiment with Mice (setting [3]), the responders at 90 mg/kg is 66.6%.

As for `CO[C@@H](c1ccc(F)cc1)[C@H](C)OC(N)=O` [Example 179, 1-(4-fluorophenyl)-(S)-1-methoxypropyl-(S)-2-carbamate], the responders at 90 mg/kg in the experiment on Mice (setting [3]) was 33.3%. In the case of `CO[C@@H](c1ccc(Cl)cc1Cl)[C@H](C)OC(N)=O` [Example 183, 1-(2,4-dichlorophenyl)-(S)-1-methoxypropyl-(S)-2-carbamate], the responders at 46 mg/kg in the experiment with Male Sprague-Dawley rats [2] was 100%. The responders at 90 mg/kg in the experiment on Mice (setting [3]) was 100%. Turning to `CO[C@@H](c1cccc(Cl)c1Cl)[C@H](C)OC(N)=O` [Example 191, 1-(2,3-dichlorophenyl)-(S)-1-methoxypropyl-(S)-2-carbamate], the responders at 46 mg/kg in the experiment with Male Sprague-Dawley rats [2] worked out at 100%. In addition, the responders at 90 mg/kg in the experiment with Mice (setting [3]) worked out at 100%. Turning to `CO[C@H](c1ccccc1Cl)[C@H](C)OC(N)=O` [Example 194, 1-(2-chlorophenyl)-(R)-1-methoxypropyl-(S)-2-carbamate], the responders at 46 mg/kg in the experiment with Male Sprague-Dawley rats [2] was found to be 83.3%. In the experiment with Mice (setting [3]), the responders at 90 mg/kg came out at 100%. `CO[C@@H](c1ccccc1Cl)[C@@H](C)OC(N)=O` [Example 195, 1-(2-chlorophenyl)-(S)-1-methoxypropyl-(R)-2-carbamate]: in the experiment on Male Sprague-Dawley rats [2], the responders at 46 mg/kg was found to be 50%. In addition, in the experiment with Mice (setting [3]), the responders at 90 mg/kg came out at 100%.

Consider `CCCC[C@@H](OC(N)=O)[C@H](OC)c1ccc(F)cc1` [Example 213, 1-(4-fluorophenyl)-(R)-1-methoxyhexyl-(R)-2-carbamate], for which, in the experiment on Mice (setting [3]), the responders at 90 mg/kg was found to be 33.3%. On to `CC[C@@H](OC(N)=O)[C@H](OC)c1ccc(Cl)cc1Cl` [Example 232, 1-(2,4-dichlorophenyl)-(R)-1-methoxybutyl-(R)-2-carbamate], for which the responders at 90 mg/kg in the experiment with Mice (setting [3]) is 33.3%. On to `C[C@@H](OC(N)=O)[C@H](OC(N)=O)c1ccccc1Cl` [Example 250, 1-(2-chlorophenyl)-(R)-2-carbamoyloxypropyl-(R)-1-carbamate], for which, in the experiment with Male Sprague-Dawley rats [1], the “Prevention Protection %” value is “^a60 (16.7%)”. Moreover, the ED50 with Mice turned out to be 46.3 mg/kg.

On to `CC(OC(N)=O)C(OC(N)=O)c1ccccc1Cl` (stereo not shown) [Example 251, 1-(2-chlorophenyl)-2-carbamoyloxypropyl-1-carbamate], for which the responders at 100 mg/kg in the experiment with Mice (setting [3]) is 33.3%. Turning to `C[C@H](OC(N)=O)[C@@H](OC(N)=O)c1ccccc1I` [Example 259, 1-(2-iodophenyl)-(S)-1-carbamoyloxypropyl-(S)-2-carbamate], in the experiment on Mice (setting [3]), the responders at 90 mg/kg was found to be 66.6%. Turning to `C[C@H](OC(N)=O)[C@@H](OC(N)=O)c1c(Cl)cccc1Cl` [Example 267, 1-(2,6-dichlorophenyl)-(S)-1-carbamoyloxypropyl-(S)-2-carbamate], the responders at 50 mg/kg in the experiment with Mice (setting [3]) came to 16.6%.

On to `COCO[C@H](c1cc(Cl)ccc1Cl)[C@@H](C)OC(N)=O` [Example 273, 1-(2,5-dichlorophenyl)-(R)-1-methoxymethoxypropyl-(R)-2-carbamate], for which, in the experiment on Mice (setting [3]), the responders at 30 mg/kg amounted to 33.3%. With `COCO[C@@H](C)[C@@H](OC(N)=O)c1ccccc1Cl` [Example 274, 1-(2-chlorophenyl)-(S)-2-methoxymethoxypropyl-(S)-1-carbamate], the responders at 46 mg/kg in the experiment on Male Sprague-Dawley rats [2] was determined as 33.3%. Besides, the responders at 90 mg/kg with Mice (setting [3]) worked out at 100%. Take `CO[C@@H](C)[C@@H](OC(N)=O)c1ccccc1Cl` [Example 275, 1-(2-chlorophenyl)-(S)-2-methoxypropyl-(S)-1-carbamate]: the responders at 90 mg/kg in the experiment with Mice (setting [3]) was determined as 100%. Turning to `COCO[C@H](COC(N)=O)c1ccccc1I` [Example 278, 1-(2-iodophenyl)-(S)-1-methoxymethoxyethyl-2-carbamate], in the experiment with Mice (setting [3]), the responders at 30 mg/kg was 33.3%. Take `COCO[C@@H](C)[C@@H](OC(N)=O)c1ccccc1I` [Example 282, 1-(2-iodophenyl)-(S)-2-methoxymethoxypropyl-1-carbamate]: in the experiment with Mice (setting [3]), the responders at 90 mg/kg was 33.3%.

With `CO[C@@H](C)[C@@H](OC(N)=O)c1ccccc1I` [Example 283, 1-(2-iodophenyl)-(S)-2-methoxypropyl-1-carbamate], in the experiment with Mice (setting [3]), the responders at 90 mg/kg was 100%. In the case of `COCO[C@@H](C)[C@@H](OC(N)=O)c1ccccc1F` [Example 284, 1-(2-fluorophenyl)-(S)-2-methoxymethoxypropyl-1-carbamate], in the experiment with Mice (setting [3]), the responders at 90 mg/kg amounted to 33.3%. Regarding `C[C@H](OC(N)=O)[C@@H](OC(N)=O)c1c(F)cccc1Cl` [Example 286, 1-(2-chloro-6-fluorophenyl)-(S)-1-carbamoyloxypropyl-(S)-2-carbamate], the responders at 90 mg/kg in the experiment with Mice (setting [3]) worked out at 33.3%. Take `C[C@@H](OC(N)=O)[C@H](OC(N)=O)c1ccccc1F` [Example 289, 1-(2-fluorophenyl)-(R)-1-carbamoyloxypropyl-(R)-2-carbamate]: the “Prevention Protection %” value in the experiment on Male Sprague-Dawley rats [1] is listed as “^a80 (16.7%)”. For the same compound, in the experiment with Mice, the ED50 came out at 56.2 mg/kg. `C[C@@H](OC(N)=O)[C@H](OC(N)=O)c1c(Cl)cccc1Cl` [Example 290, 1-(2,6-dichlorophenyl)-(R)-1-carbamoyloxypropyl-(R)-2-carbamate]: the responders at 30 mg/kg in the experiment with Mice (setting [3]) was found to be 33.3%. Take `C[C@@H](OC(N)=O)[C@H](OC(N)=O)c1c(F)cccc1F` [Example 292, 1-(2,6-difluorophenyl)-(R)-1-carbamoyloxypropyl-(R)-2-carbamate]: the responders at 56 mg/kg in the experiment with Mice (setting [3]) came to 33.3%. In the case of `C[C@@H](OC(N)=O)[C@@H](OC(N)=O)c1ccccc1Cl` [Example 294, 1-(2-chlorophenyl)-(S)-1-carbamoyloxypropyl-(R)-2-carbamate], in the experiment with Mice (setting [3]), the responders at 90 mg/kg amounted to 66.6%. Still for that read-out and setting: the same measure for `C[C@H](OC(N)=O)[C@H](OC(N)=O)c1ccccc1Cl` [Example 295, 1-(2-chlorophenyl)-(R)-1-carbamoyloxypropyl-(S)-2-carbamate]: 100%.
